pIC50: −log10 of the molar value.
Assays:
[1] = target: PI3-kinase p110-delta/p85-alpha (Homo sapiens) (UniProt P27986+O00329); assay: Inhibition of PI3K p110delta/p85alpha (unknown origin) at 100 nM using lipid substrate after 40 mins by kinase-glo luminescence assay relative to control; format: protein-complex assay
[2] = Antiproliferative activity against human RPMI8266 cells after 72 hrs by MTT assay; format: functional, cell-based; conditions: RPMI8266, 72 h
Ramos = assay: Antiproliferative activity against human Ramos cells after 72 hrs by MTT assay; format: functional, cell-based
Raji = assay: Antiproliferative activity against human Raji cells after 72 hrs by MTT assay; format: functional, cell-based
[3] = target: PI3-kinase p110-delta/p85-alpha (Homo sapiens, UniProt O00329); assay: Inhibition of PI3K p110delta/p85alpha (unknown origin) using lipid substrate after 40 mins by kinase-glo luminescence assay; format: protein-complex assay
PI3-kinase p110-delta/p85-alpha, sequence (P27986 whole entry): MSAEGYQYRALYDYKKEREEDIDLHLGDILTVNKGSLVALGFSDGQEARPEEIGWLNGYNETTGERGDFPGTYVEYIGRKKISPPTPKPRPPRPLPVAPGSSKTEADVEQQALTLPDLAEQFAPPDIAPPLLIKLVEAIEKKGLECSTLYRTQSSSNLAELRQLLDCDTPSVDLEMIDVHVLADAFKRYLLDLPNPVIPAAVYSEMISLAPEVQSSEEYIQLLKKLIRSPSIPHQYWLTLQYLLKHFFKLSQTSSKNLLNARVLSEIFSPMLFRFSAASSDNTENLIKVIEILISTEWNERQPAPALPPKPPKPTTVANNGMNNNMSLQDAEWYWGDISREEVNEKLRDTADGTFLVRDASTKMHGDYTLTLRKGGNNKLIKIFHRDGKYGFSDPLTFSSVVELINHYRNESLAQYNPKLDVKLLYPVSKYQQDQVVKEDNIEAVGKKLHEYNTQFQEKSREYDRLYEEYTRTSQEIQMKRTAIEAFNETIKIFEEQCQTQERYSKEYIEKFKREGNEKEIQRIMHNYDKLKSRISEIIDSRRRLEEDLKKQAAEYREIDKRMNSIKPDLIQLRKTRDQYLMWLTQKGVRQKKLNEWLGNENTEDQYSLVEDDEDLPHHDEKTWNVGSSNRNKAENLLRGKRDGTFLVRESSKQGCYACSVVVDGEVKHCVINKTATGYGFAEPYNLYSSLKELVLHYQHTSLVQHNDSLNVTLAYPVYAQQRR
PI3-kinase p110-delta/p85-alpha, sequence (O00329 whole entry): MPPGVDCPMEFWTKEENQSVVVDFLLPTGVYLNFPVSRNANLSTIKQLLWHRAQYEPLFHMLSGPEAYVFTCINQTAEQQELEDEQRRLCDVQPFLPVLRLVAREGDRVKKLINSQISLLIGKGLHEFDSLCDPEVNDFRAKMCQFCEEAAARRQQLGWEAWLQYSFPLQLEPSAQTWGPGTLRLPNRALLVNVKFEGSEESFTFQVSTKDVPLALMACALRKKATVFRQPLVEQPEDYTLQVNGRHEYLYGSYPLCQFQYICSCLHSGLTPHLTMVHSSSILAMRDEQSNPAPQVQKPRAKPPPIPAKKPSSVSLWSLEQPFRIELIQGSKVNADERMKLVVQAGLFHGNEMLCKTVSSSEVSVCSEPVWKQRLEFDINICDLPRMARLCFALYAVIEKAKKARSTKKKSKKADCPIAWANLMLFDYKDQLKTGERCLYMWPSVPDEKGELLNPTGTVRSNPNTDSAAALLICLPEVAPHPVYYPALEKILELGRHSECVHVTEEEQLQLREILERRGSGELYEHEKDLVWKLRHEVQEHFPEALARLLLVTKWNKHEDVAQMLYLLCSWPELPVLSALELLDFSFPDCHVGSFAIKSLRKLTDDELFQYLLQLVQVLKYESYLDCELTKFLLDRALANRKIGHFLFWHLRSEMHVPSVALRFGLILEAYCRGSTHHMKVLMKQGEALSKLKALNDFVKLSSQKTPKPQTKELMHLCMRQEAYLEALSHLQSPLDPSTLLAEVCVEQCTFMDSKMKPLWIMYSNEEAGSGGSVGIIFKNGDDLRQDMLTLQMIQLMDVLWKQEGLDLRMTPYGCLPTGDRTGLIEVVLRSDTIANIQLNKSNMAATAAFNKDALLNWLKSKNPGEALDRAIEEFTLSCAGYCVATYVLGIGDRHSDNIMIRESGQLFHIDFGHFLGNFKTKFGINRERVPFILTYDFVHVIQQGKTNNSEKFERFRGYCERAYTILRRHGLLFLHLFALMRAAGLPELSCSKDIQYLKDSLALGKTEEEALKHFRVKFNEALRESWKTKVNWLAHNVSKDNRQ

SMILES	inhibition [1]	pIC50 [2]	pIC50 (Ramos)	pIC50 (Raji)	pIC50 [3]
COc1ccc(-c2ccc3ncnc(Nc4ccc(C(=O)N5CCN(C)CC5)cc4)c3c2)cc1C(N)=O	12%				
COc1ccc(-c2ccc3ncnc(Nc4cccc(C(=O)N5CCOCC5)c4)c3c2)cc1C(N)=O	21%				
COc1ccc(-c2ccc3ncnc(Nc4ccc(C(=O)N5CCOCC5)cc4)c3c2)cn1	61%				
COc1ccc(-c2ccc3ncnc(Nc4cccc(C(=O)N5CCN(C)CC5)c4)c3c2)cn1	71%				
COc1ccc(-c2ccc3nccc(Nc4cccc(C(=O)N5CCN(C)CC5)c4)c3c2)cn1	23%				
CC[C@H](Nc1ncnc2[nH]cnc12)c1nc2cccc(F)c2c(=O)n1-c1ccccc1 [IDELALISIB]	96%	5.26	< 5.00	5.00	
COc1cc(C(N)=O)cc(-c2ccc3ncnc(Nc4cccc(C(=O)N5CCOCC5)c4)c3c2)c1	61%				
COc1ccc(-c2ccc3ncnc(Nc4cccc(C(=O)N5CCOCC5)c4)c3c2)cn1	87%				
COc1ccc(-c2ccc3nccc(Nc4cccc(C(=O)N5CCN(C)CC5)c4)c3c2)cc1C(N)=O	0%				
COc1ccc(-c2ccc3ncnc(Nc4ccc(C(=O)N5CCOCC5)cc4)c3c2)cc1C(N)=O	0%				
COc1ccc(-c2ccc3ncnc(Nc4cccc(C(=O)N5CCN(C)CC5)c4)c3c2)cc1C(N)=O	33%				
COc1ncc(-c2ccc3ncnc(Nc4cccc(C(=O)N5CCOCC5)c4)c3c2)cc1C#N	93%	5.18	< 5.00	< 5.00	8.03
NC(=O)c1cc(-c2ccc3ncnc(Nc4cccc(C(=O)N5CCOCC5)c4)c3c2)cc(C(F)(F)F)c1	91%	5.96	5.97	6.02	8.01
COc1c(C(N)=O)cc(-c2ccc3ncnc(Nc4cccc(C(=O)N5CCOCC5)c4)c3c2)cc1[N+](=O)[O-]	49%				

Source: ChEMBL document CHEMBL4049417, “Design and synthesis of novel 6-aryl substituted 4-anilinequinazoline derivatives as potential PI3Kδ inhibitors” (Bioorg Med Chem Lett, 2017)
